According to ChEMBL document CHEMBL5055671, “Targeting a Novel KRAS Binding Site: Application of One-Component Stapling of Small (5-6-mer) Peptides” (J Med Chem, 2021):
Numbered stars: 1 amine (or outer) side, 2 acyl side, 3 side chain; on linkers, the order of the positions; unused ones are H or OH. Bridge positions count the residues as written; N and C are the ends. Square brackets hold non-standard residues; d marks the D form. Peptide text beside a SMILES is read from it. ξ: configuration not given here. Nle(4-yne,6-yl) = O=C([C@H](CC#CC[*:3])N[*:1])[*:2]; ξIle = CC[C@H](C)C(N)C(=O)O

Target: GTPase KRas (Homo sapiens, UniProt P01116, G12V)
Test: Inhibition of alexa fluor 647-labeled kinase tracer 314 binding to biotinylated-KRAS G12V mutant (unknown origin) measured after 60 mins by HTRF competition binding assay

| IC50 (read-out: pIC50 (converted)) | Compound | pIC50 | IC50 (read-out: IC50) |
| --- | --- | --- | --- |
| – | CC(C)C[C@H](NC(=O)[C@H]1COCc2cn(nn2)CCCCC(=O)NCC(=O)N2CCC[C@H]2C(=O)N[C@@H](Cc2cccc3ccccc23)C(=O)N1)C(N)=O | < 4 | > 100 µM |
| – | NC(=O)[C@H](CC1CC1)NC(=O)[C@@H]1COCc2cnnn2CCCCC(=O)NCC(=O)N2CCC[C@H]2C(=O)N[C@@H](Cc2cccc3ccccc23)C(=O)N1 | – | 29 µM |
| – | CC(C)C[C@H](NC(=O)[C@@H]1COCc2cnnn2CCCCC(=O)N[C@H](C)C(=O)N2CCC[C@H]2C(=O)N[C@@H](Cc2cccc3ccccc23)C(=O)N1)C(N)=O | – | 25 µM |
| – | CC(=O)N[C@@H](CC(=O)O)C(=O)N[C@H]1CCCn2nncc2COC[C@@H](C(=O)N[C@@H](CC(C)C)C(=O)N[C@@H](C)C(=O)N2CCC[C@H]2C(N)=O)NC(=O)[C@H](Cc2cccc3ccccc23)NC(=O)[C@@H]2CCCN2C(=O)CNC1=O | – | 40 µM |
| – | CC(C)C[C@H](NC(=O)[C@@H]1COCc2cnnn2CCCCC(=O)NCC(=O)N2CCC[C@H]2C(=O)N[C@@H](CC(C)C)C(=O)N1)C(N)=O | – | 60 µM |
| – | CC[C@H](C)C1NC(=O)[C@@H]2CCCN2C(=O)[C@H](Cc2ccc(O)cc2)NC(=O)[C@@H](NC(=O)[C@H](CC(=O)O)NC(=O)[C@H](Cc2ccc(O)cc2)NC(=O)[C@H](Cc2ccccc2)NC(=O)[C@H](Cc2c[nH]cn2)NC(=O)[C@@H](N)Cc2ccccc2)CC#CCSC[C@@H](C(=O)N[C@@H](CC(C)C)C(=O)N[C@H](C(=O)N2CCC[C@H]2C(=O)N2CCC[C@H]2C(N)=O)[C@@H](C)CC)NC1=O (some centres not stated) (H-FHFYD[Nle(4-yne,6-yl)]YP[ξIle]CLIPP-NH2; thioether 6-10) | – | 0.023 µM |
| – | NC(=O)[C@@H](NC(=O)[C@@H]1COCc2cnnn2CCCCC(=O)NCC(=O)N2CCC[C@H]2C(=O)N[C@@H](Cc2cccc3ccccc23)C(=O)N1)C1CCCCC1 | – | 78 µM |
| – | C[C@H](NC(=O)[C@@H]1COCc2cnnn2CCCCC(=O)NCC(=O)N2CCC[C@H]2C(=O)N[C@@H](Cc2cccc3ccccc23)C(=O)N1)C(N)=O | – | 37 µM |
| – | CCCC[C@@H]1NC(=O)[C@@H]2CCCN2C(=O)CNC(=O)CCCCn2nncc2COC[C@@H](C(=O)N[C@@H](CC(C)C)C(N)=O)NC1=O | – | 48 µM |
| > 79.4 µM | CC(=O)N[C@@H](CCC(=O)O)C(=O)N[C@H]1CCCn2nncc2COC[C@@H](C(=O)N[C@@H](CC(C)C)C(=O)N[C@@H](C)C(=O)N2CCC[C@H]2C(N)=O)NC(=O)[C@H](Cc2cccc3ccccc23)NC(=O)[C@@H]2CCCN2C(=O)CNC1=O | – | > 83 µM |
| – | CC(C)C[C@H](NC(=O)[C@H]1Cc2cnnn2CCCCC(=O)NCC(=O)N2CCC[C@H]2C(=O)N[C@@H](Cc2cccc3ccccc23)C(=O)N1)C(N)=O | – | 65 µM |
| – | CC(C)C[C@H](NC(=O)[C@@H]1COCc2cnnn2CCCCC(=O)NCC(=O)N2CCC[C@H]2C(=O)N[C@@H](Cc2ccc(Cl)cc2)C(=O)N1)C(N)=O | – | > 74 µM |
| – | CC(C)C[C@H](NC(=O)[C@@H]1COCc2cnnn2CCCCC(=O)NCC(=O)NC(C)(C)C(=O)N[C@@H](Cc2cccc3ccccc23)C(=O)N1)C(N)=O | – | 20 µM |
| – | CC(C)C[C@H](NC(=O)[C@@H]1COCc2cnnn2CCCCC(=O)NCC(=O)N2CCC[C@H]2C(=O)N[C@@H](Cc2ccccc2Cl)C(=O)N1)C(N)=O | – | > 100 µM |
| – | CC(C)C[C@H](NC(=O)[C@@H]1COCc2cnnn2CCCCCCCC(=O)N2CCC[C@H]2C(=O)N[C@@H](Cc2cccc3ccccc23)C(=O)N1)C(N)=O | – | 81 µM |
| – | CC(C)C[C@H](NC(=O)[C@@H]1COCc2cnnn2CCCCC(=O)NCC(=O)N(C)[C@@H](C(C)C)C(=O)N[C@@H](Cc2cccc3ccccc23)C(=O)N1)C(N)=O | – | 100 µM |
| – | CC(C)C[C@H](NC(=O)[C@@H]1COCc2cnnn2CCCCC(=O)NCC(=O)N2CCC[C@H]2C(=O)N[C@@H](CC2CCCCC2)C(=O)N1)C(N)=O | – | 100 µM |
| – | CC(C)C[C@H](NC(=O)[C@@H]1COCc2cnnn2CCCCC(=O)N[C@H](CC(=O)O)C(=O)N2CCC[C@H]2C(=O)N[C@@H](Cc2cccc3ccccc23)C(=O)N1)C(N)=O | – | 77 µM |
| – | CC(C)C[C@H](NC(=O)[C@@H]1COCc2cnnn2CCCCC(=O)N[C@H](CCC(=O)O)C(=O)N2CCC[C@H]2C(=O)N[C@@H](Cc2cccc3ccccc23)C(=O)N1)C(N)=O | – | 100 µM |
| – | CC(C)C[C@H](NC(=O)[C@@H]1COCc2cnnn2CCCCC(=O)NCC(=O)N2CCC[C@H]2C(=O)N[C@@H](Cc2cccs2)C(=O)N1)C(N)=O | – | 53 µM |
| – | CC(=O)N[C@@H](Cc1cccc2ccccc12)C(=O)N[C@@H](COCc1cnnn1CCCCC(=O)NCC(N)=O)C(=O)N[C@@H](CC(C)C)C(N)=O | – | 38 µM |
| – | CC(C)C[C@H](NC(=O)[C@@H]1COCc2cnnn2CCCCC(=O)N[C@@H](CCC(=O)O)C(=O)N2CCC[C@H]2C(=O)N[C@@H](Cc2cccc3ccccc23)C(=O)N1)C(N)=O | – | 49 µM |
| – | CC(C)C[C@H](NC(=O)[C@@H]1COCc2cnnn2CCCCC(=O)N[C@@H](C)C(=O)N2CCC[C@H]2C(=O)N[C@@H](Cc2cccc3ccccc23)C(=O)N1)C(N)=O | – | 9.7 µM |
| – | CC(=O)N[C@@H](CCC(=O)O)C(=O)N[C@H]1CCCn2nncc2COC[C@H](C(=O)N[C@@H](CC(C)C)C(N)=O)NC(=O)[C@H](Cc2cccc3ccccc23)NC(=O)[C@@H]2CCCN2C(=O)CNC1=O | – | 93 µM |
| – | NC(=O)[C@H](CC1CCCCC1)NC(=O)[C@@H]1COCc2cnnn2CCCCC(=O)NCC(=O)N2CCC[C@H]2C(=O)N[C@@H](Cc2cccc3ccccc23)C(=O)N1 | – | 100 µM |
